Measured values published in patent US20100204161A1, “Substances and Pharmaceutical Compositions for the Inhibition of Glyoxalases and Their Use Against Bacteria” (BIOMAC PRIVATINSTITUT FUR MEDIZINISHE UND ZAHMEDIZ …, priority 2005, published 2010).

Experiments:
[1] = test system: biofilms (biofilm-forming microorganisms from pipe water); assay: Destruction of biofilms on contaminated silicone surfaces (colony forming units); type: cell-based; conditions: for Colony forming units derivable from biofilms after treatment: normalized to 1 cm2 inner tube surface
Protocol: Biofilms were allowed to generate in a silicon tube system according to Gebel et al. (2005). In short, pipe water from a public water distributor was used as the source of biofilm-forming microorganisms. Water flow was at about 20 l per hour through silicon tubes from two commercial suppliers with inner diameters of 4 mm for 30 days at 25° C. After that the tubes were emptied, sealed at both ends and treated on their outer surface with 0.2% peroxoacetic acid for 1 hour. Tubes were then rinsed with sterile water and afterwards cut into pieces of 5 cm length each using a sterile scalpel. Pieces obtained this way were then dipped into solutions which contained the substance to be tested or respective controls. 25 ml of the test solutions were used in closed Falcon tubes (50 ml). […] Tubes were opened over their full length with scissors and the material deposited at the original inner surfaces of the tubes homogenized in 10 ml of saline (9 g NaCl/l water). Dilutions were made (decimal steps to 10^4) and 0.1 ml of these solutions plated onto test agar plates (1 l contained 0.5 g yeast extract, 0.5 g peptone, 0.5 g casein hydrolysate, 0.5 g starch. 0.3 g potassium hydrogen phosphate, 24 mg magnesium sulphate, 0.3 g sodium pyruvate, 15 g agar). Plates were incubated for seven days at 20° C. Colonies which formed were counted on each plate independent of their appearance and color. […] Two dilutions must be consistent in colony numbers, taken into consideration the respective dilution factors. Numbers were normalized to 1 cm2 of the inner tube surface. Each substance was analysed in duplicates. Biofilms were treated with water (control), ethyl pyruvate […] Numbers are given for each of the different silicon tubes used.

[2] = test system: primary human skin fibroblasts; assay: Vitality of primary human fibroblasts (dye exclusion count); type: cell-based; conditions: 1-50 mM, serum free medium, 24 hours; FIG. 7
Protocol: An identical number (10^4 cells per well) of primary human skin fibroblasts were inoculated in 24-well plates (Greiner, no. 662160) and were cultured in DMEM (Gibco; no. 41966-092) in the presence of 10% calf serum (Biochrom, S0113/5), 2 mM L-glutamine (Gibco; no. 25030-024), penicillin/streptomycin (100 units penicillin/ml; 100 μg streptomycin/ml, Gibco; no. 15140/122), 5 mg % ascorbic acid (Serva, no. 14030.02) at 37° C., 5% CO2 and 95% humidity. The primary human fibroblasts were prepared according to the instructions of Birkenmeier et al. (1998). After reaching 50% confluency the medium was by fresh serum free medium. Thereafter the following supplements were added to the cells: preparation 1 (equivalent volume of serum free (SF) medium, blank); preparation 2 (1 mM DEL or 1 mM LEL or 1 mM EP); preparation 3 (5 mM DEL or 5 mM LEL or 5 mM EP), preparation 4 (10 mM DEL or 10 mM LEL or 10 mM EP), preparation 5 (20 mM DEL or 20 mM LEL or 20 mM EP), preparation 6 (50 mM DEL or 50 mM LEL or 50 mM EP). The culture was continued at 37° C., 5% CO2 and 95% humidity for 24 hours. Thereafter the supernatants were removed and 100 μl of a 50% […] solution was added to the wells. After washing the cells with medium the unstained and stained cells were counted under the light optical microscope comprising a coordinate plane. Cells stained blue were assessed as avital, unstained cells as vital. The percentage of unstained cells of the total number of cells corresponds to the vitality of the cells.

[3] = target: T1, glyoxalase II of human erythrocytes (Homo sapiens, UniProt Q16775); assay: Enzymatic activity of human erythrocyte glyoxalase II (erythrocyte hemolysate); type: biochemical; conditions: 0-20 mM; FIG. 6
T1 construct: from tissue; host or cells: human erythrocyte hemolysate
Protocol: The determination of erythrocyte glyoxalase II (E.C.3.1.2.6., hydroxyacyl glutathione hydrolase) was performed according to the instructions of McLellan and Thornalley (1989). The principle is based on determining the initial hydrolysis of S-D-lactoyl-glutathione (L 7140, Sigma-Aldrich Chemie GmbH) in the presence of low amounts of a cell extract. Hydrolysis is observed on the basis of the reduction of the extinction at 240 nm (e=−3.1 mM-1 cm-1). Glyoxalase II activity (IU) correlates to the amount of enzyme hydrolysing 1 μmol of S-D-lactoyl-glutathione/min. The measurement was performed in 100 mM Tris-HCl buffer, pH 7.4. For this purpose 0.4 mM S-D-lactoyl-glutathione was added to 1 ml of the measuring reagent and the reaction was started by addition of suitable amounts (5-100 μl) of an erythrocyte hemolysate. The erythrocyte lysate was prepared according to the instructions of Mannervik et al. (1982).
Determination of glyoxalase II activity was performed according to the general protocol as described above. The influence of ethyl pyruvate on the activity of the enzyme was investigated by addition of increasing concentrations of EP (Sigma, no. E 4, 780-8; lot. S18972-513) (0-20 mM) to the measuring reagent.

[4] = target: T2, glyoxalase I of human erythrocytes (Homo sapiens, UniProt Q04760); assay: Enzymatic activity of human erythrocyte glyoxalase I (erythrocyte lysate); type: biochemical; conditions: 0-50 mM; FIG. 5
T2 construct: from tissue; host or cells: human erythrocyte lysate
T2 sequence (Q04760 2-184 limits assumed): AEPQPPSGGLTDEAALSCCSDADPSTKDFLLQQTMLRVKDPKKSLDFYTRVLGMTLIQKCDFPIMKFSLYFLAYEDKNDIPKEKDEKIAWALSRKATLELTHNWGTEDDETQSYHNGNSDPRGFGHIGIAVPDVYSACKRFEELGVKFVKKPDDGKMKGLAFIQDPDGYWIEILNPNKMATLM
Protocol: The determination of glyoxalase I was performed as described above for the yeast enzyme. After the formation of the hemithioacetal, suitable amounts (5 to 100 μl) of an erythrocyte lysate were added to 1 ml of the measuring reagent to start the reaction. The erythrocyte lysate was prepared according to the instructions of Mannervik et al. (1982).
Glyoxalase activity (IU) corresponds to the amount of enzyme forming 1 μmol of S-D-lactoyl-glutathione/min.
Determination of glyoxalase I activity was performed according to the general protocol as described above. The influence of ethyl pyruvate on enzyme activity was investigated by addition of increasing concentrations of EP (Sigma; no. E4, 780-8; lot. S18972-513) (0-50 mM) to the measuring reagent.

## CCOC(=O)C(C)=O [Ethyl pyruvate]
[1]; 10 mM, 30 min, first silicon tube
  Colony forming units derivable from biofilms after treatment: 4.9 × 10^3 colony forming units
[1]; 10 mM, 30 min, second silicon tube
  Colony forming units derivable from biofilms after treatment: 5.2 × 10^3 colony forming units
[1]; 10 mM, 120 min, first silicon tube
  Colony forming units derivable from biofilms after treatment: 1.6 × 10^3 colony forming units
[1]; 10 mM, 120 min, second silicon tube
  Colony forming units derivable from biofilms after treatment: 1.7 × 10^3 colony forming units
[1]; 25 mM, 30 min, first silicon tube
  Colony forming units derivable from biofilms after treatment: 4.4 × 10^2 colony forming units
[1]; 25 mM, 30 min, second silicon tube
  Colony forming units derivable from biofilms after treatment: 4.2 × 10^2 colony forming units
[1]; 25 mM, 120 min, first silicon tube
  Colony forming units derivable from biofilms after treatment: <10^2 colony forming units
[1]; 25 mM, 120 min, second silicon tube
  Colony forming units derivable from biofilms after treatment: <10^2 colony forming units
[1]; 25 mM, decreases from about 10^7, Table 5
  number of colony forming units after treatment of biofilm: < 10^2 colony forming units
[1]; compared to 0.1% peroxoacetic acid
  Effectiveness against biofilms compared to peroxoacetic acid: even more effective compared to a common disinfectant
[2]
  Effect on the vitality of primary human fibroblasts: not toxic over the concentration range investigated
[3]
  Inhibition of the enzymatic activity of glyoxalase II of human erythrocytes: inhibits the reaction of glyoxalase II in a concentration dependent manner
[4]
  Inhibition of the enzymatic activity of glyoxalase I of human erythrocytes: inhibits the reaction of glyoxalase I of human erythrocytes in a concentration dependent manner
